Results published in US4508727A, “Antihypertensive 2-oxo-imidazolidine derivatives” (Tanabe Seiyaku Co., Ltd., priority 1982, dated 1985).
Values belong to the compound of their own block, whether it stands above or below them.

How the values were obtained:
[1] = target: T1, angiotensin-converting enzyme (ACE) isolated from pig's renal cortex (Sus scrofa, UniProt F1RRW5); test: ACE-inhibitory activity in vitro; format: biochemical; settings: substrate hippuryl-histidyl-leucine, 37° C., 20 minutes
T1 construct: isolated from pig's renal cortex; from tissue; host or cells: pig renal cortex
T1 sequence (F1RRW5 34-1309): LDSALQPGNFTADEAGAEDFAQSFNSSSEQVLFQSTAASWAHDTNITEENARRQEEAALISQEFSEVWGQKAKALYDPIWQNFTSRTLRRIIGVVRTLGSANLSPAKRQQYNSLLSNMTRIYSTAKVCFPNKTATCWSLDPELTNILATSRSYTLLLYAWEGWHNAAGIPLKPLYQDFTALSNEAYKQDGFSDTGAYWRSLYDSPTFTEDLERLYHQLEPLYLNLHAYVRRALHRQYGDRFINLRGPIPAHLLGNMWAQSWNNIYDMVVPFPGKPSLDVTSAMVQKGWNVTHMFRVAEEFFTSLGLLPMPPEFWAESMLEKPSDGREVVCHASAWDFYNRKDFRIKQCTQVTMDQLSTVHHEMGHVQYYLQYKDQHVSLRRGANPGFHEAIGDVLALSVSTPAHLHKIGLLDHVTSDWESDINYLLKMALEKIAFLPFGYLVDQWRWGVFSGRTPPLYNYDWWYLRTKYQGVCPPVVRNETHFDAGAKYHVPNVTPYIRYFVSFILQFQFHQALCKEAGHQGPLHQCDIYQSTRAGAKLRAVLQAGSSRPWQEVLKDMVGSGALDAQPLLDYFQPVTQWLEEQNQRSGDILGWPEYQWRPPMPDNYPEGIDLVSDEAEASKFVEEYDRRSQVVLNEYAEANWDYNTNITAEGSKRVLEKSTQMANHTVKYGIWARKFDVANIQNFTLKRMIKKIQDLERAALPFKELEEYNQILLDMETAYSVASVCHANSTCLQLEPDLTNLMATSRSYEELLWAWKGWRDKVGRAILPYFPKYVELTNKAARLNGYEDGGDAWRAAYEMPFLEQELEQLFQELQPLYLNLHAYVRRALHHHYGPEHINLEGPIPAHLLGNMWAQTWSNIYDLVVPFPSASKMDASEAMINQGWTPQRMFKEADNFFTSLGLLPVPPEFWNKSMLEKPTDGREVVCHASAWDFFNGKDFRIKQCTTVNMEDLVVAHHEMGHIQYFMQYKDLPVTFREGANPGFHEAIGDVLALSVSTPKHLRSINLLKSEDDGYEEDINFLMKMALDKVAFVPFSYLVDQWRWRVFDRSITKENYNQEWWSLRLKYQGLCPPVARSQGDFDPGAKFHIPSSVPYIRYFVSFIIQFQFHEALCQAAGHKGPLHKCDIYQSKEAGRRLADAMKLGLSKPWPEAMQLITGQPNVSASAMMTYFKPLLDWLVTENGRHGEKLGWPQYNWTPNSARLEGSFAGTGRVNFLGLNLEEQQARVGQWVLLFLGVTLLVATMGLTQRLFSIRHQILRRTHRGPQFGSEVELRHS
Procedure: 50 μl of a solution containing 0.01 mole/liter of hippuryl-histidyl-leucine (substrate) and 0-100 μl of a test compound solution were added to 300 μl of a 0.2M tris-hydrochloric acid buffer solution containing 0.2 mole/liter of sodium chloride. The total volume of said mixture was adjusted to 450 μl with water. Then, 50 μl of angiotensin-converting enzyme (ACE) isolated from pig's renal cortex were added to the mixture, and the mixture was allowed to stand at 37° C. for 20 minutes. The amount of histidyl-leucine produced from the substrate by the action of ACE was assayed microbiologically by the use of Leuconostoc mesenteroides P-60, and the ACE-inhibitory activity of the test compound was estimated therefrom.

[2] = tested on: ACE; test: ACE-inhibitory activity in vivo, pressor response to angiotensin I, intravenous, rats; parameters: species or system rat; settings: normotensive rats, 10 γ/kg intravenously, angiotensin I 300 ng/kg
Procedure: (§1) Normotensive rats and normotensive cats were anesthetized with urethane (1.2 g/kg, s.c.), and angiotensin I (rat: 300 ng/kg, cat: 600 ng/kg) was injected into the jugular vein of the rats and the femoral vein of the cats. The pressor response to angiotensin I was measured with a pressure transducer connected to the carotid artery. Then, a test compound was injected intravenously thereto at a dose of 10 γ/kg, and angiotensin I (rat: 300 ng/kg, cat: 600 ng/kg) was further injected intravenously at intervals. The ACE-inhibitory activity of the test compound was estimated by dose-response curve measured from the pressor responses to angiotensin I which were obtained before and after intravenous injection of the test compound.

[3] = tested on: ACE; test: ACE-inhibitory activity in vivo, pressor response to angiotensin I, intravenous, cats; parameters: species or system cat; settings: normotensive cats, 10 γ/kg intravenously, angiotensin I 600 ng/kg
Procedure: as §1

[4] = tested on: mice; test: toxicity, intravenous administration to mice; format: in vivo; settings: 1000 mg/kg intravenously, 7 days after the administration
Procedure: Further, the toxicity of the compound (I) of the invention is remarkably low. For example, when (4S)-1-benzyl-3-{(2 S)-2-[N-((1S)-1-carboxy-3-phenylpropyl)amino]propionyl}-2-oxo-imidazolidine-4-carboxylic acid and (4S)-1-methyl-3-{(2S)-2-[N-((1S)-1-carboxy-n-nonyl)amino]propionyl}-2-oxo- imidazolidine-4-carboxylic acid were administered intravenously to mice at the dose of 1000 mg/kg, no mice died 7 days after the administration. Thus, angiotensin-dependent hypertension in mammals can be alleviated by administration of the compound (I) of the present invention or a pharmaceutically acceptable salt thereof.

[5] = tested on: ACE; test: ACE-inhibitory activity in vivo, pressor response to angiotensin I, oral, rats; parameters: species or system rat; settings: for ACE-inhibitory activity (%): normotensive rats, 1 mg/kg orally, angiotensin I 300 ng/kg i.v.
Procedure: Normotensive rats were anesthetized with urethane (1.2 g/kg, s.c.), and angiotensin I (300 ng/kg) was injected into the jugular vein of the rats. The pressor response to angiotensin I was measured with a pressure transducer connected to the carotid artery. Then, a test compound was administered orally thereto at a dose of 1 mg/kg, and angiotensin I (300 ng/kg) was further injected intravenously at intervals. The ACE-inhibitoryactivity of the test compound was estimated from the pressor responses to angiotensin I which were obtained before and after oral administration of the test compound.

[6] = tested on: spontaneously hypertensive rats (SHR); test: Hypotensive activity in SHR; format: in vivo, rat; settings: 3 mg/kg orally; for hypotensive activity, Blood pressure (b): measured after administration of the test compound / hypotensive activity, Blood pressure (a): measured before administration of the test compound / Duration of action: SHR; for hypotensive activity, Blood pressure (b): measured after administration of the test compound / hypotensive activity, Blood pressure (a): measured before administration of the test compound: systolic
Procedure: A test compound suspended in an aqueous carboxymethyl-cellulose solution was administered orally (dose: 3 mg/kg) to spontaneously hypertensive rats (SHR) fasted overnight. The systolic blood pressure of the rats was measured by the tail plethysmographic technique (The Journal of Laboratory and Clinical Medicine 78 (1971), page 957). The hypotensive activity of the test compound was estimated from the decreased level of blood pressure.

SMILES: C[C@H](N[C@@H](CCc1ccccc1)C(=O)O)C(=O)N1C(=O)N(Cc2ccccc2)C[C@H]1C(=O)O [Example 8, (4S)-1-benzyl-3-{(2S)-2-[N-((1S)-1-carboxy-3-phenylpropyl)amino]propionyl}-2-oxo-imidazolidine-4-carboxylic acid]
- IC50 [1]: 1.7 nM
- ACE-inhibitory activity (%) [2]: 33 ± 4%
- ACE-inhibitory activity (%) [3]: 36 ± 8%
- mortality (mice died) [4]: no mice died

SMILES: CCOC(=O)[C@H](CCc1ccccc1)N[C@@H](C)C(=O)N1C(=O)N(C)C[C@H]1C(=O)O [Example 1, (4S)-1-methyl-3-{(2S)-2-[N-((1S)-1-ethoxycarbonyl-3-phenylpropyl)amino]propionyl}-2-oxo-imidazolidine-4-carboxylic acid]
- ACE-inhibitory activity (%) [5]: 60 ± 6%
- inhibition of ACE-activity ([5]; rats administered angiotensin I intravenously, 1.0 mg/kg): about 60%
- hypotensive activity, Blood pressure (b): measured after administration of the test compound [6]: 136 ± 4 mm Hg
- hypotensive activity, Blood pressure (a): measured before administration of the test compound [6]: 181 ± 3 mm Hg
- Duration of action ([6]; 3 mg/kg): more than 6 hours
- Duration of action ([6]; listed as CH3, CH3, C6 H5 (CH2)2, C2 H5, 3 mg/kg): > 6 h
- decrease in blood pressure ([6]; spontaneously hypertensive rats): about 45 mmHg

SMILES: CCCCCCCC[C@H](N[C@@H](C)C(=O)N1C(=O)N(C)C[C@H]1C(=O)O)C(=O)O [Example 5, (4S)-1-methyl-3-{(2S)-2-[N-((1S)-1-carboxy-n-nonyl)amino]propionyl}-2-oxo-imidazolidine-4-carboxylic acid]
- ACE-inhibitory activity (%) [2]: 47 ± 4%
- ACE-inhibitory activity (%) [3]: 36 ± 5%
- mortality (mice died) [4]: no mice died

SMILES: CCCCCCCC[C@H](N[C@@H](C)C(=O)N1C(=O)N(C)C[C@H]1C(=O)O)C(=O)OCC [Example 3, (4S)-1-methyl-3-{(2S)-2-[N-((1S)-1-ethoxycarbonyl-n-nonyl)amino]propionyl}-2-oxo-imidazolidine-4-carboxylic acid]
- ACE-inhibitory activity (%) [5]: 56 ± 7%
- Duration of action [6]: > 6 h
- hypotensive activity, Blood pressure (b): measured after administration of the test compound [6]: 143 ± 4 mm Hg
- hypotensive activity, Blood pressure (a): measured before administration of the test compound [6]: 174 ± 5 mm Hg

SMILES: C[C@H](N[C@@H](CCc1ccccc1)C(=O)O)C(=O)N1C(=O)N(C)C[C@H]1C(=O)O [Example 4, (4S)-1-methyl-3-{(2S)-2-[N-((1S)-1-carboxy-3-phenylpropyl)amino]propionyl}-2-oxo-imidazolidine-4-carboxylic acid]
- ACE-inhibitory activity (%) [2]: 56 ± 3%
- ACE-inhibitory activity (%) [3]: 40 ± 6%

The next lines start with the values.

- IC50 [1]: 11 nM
SMILES: C[C@H](N[C@@H](Cc1ccccc1)C(=O)O)C(=O)N1C(=O)N(Cc2ccccc2)C[C@H]1C(=O)O [Example 14-(3), (4S)-1-benzyl-3-{(2S)-2-[N-((1S)-1-carboxy-2-phenylethyl)amino]propionyl}-2-oxo-imidazolidine-4-carboxylic acid]

- IC50 [1]: 1.5 nM
SMILES: CCCCCCCC[C@H](N[C@@H](C)C(=O)N1C(=O)N(Cc2ccccc2)C[C@H]1C(=O)O)C(=O)O [Example 9, (4S)-1-benzyl-3-{(2S)-2-[N-((1S)-1-carboxy-n-nonyl)amino]propionyl}-2-oxo-imidazolidine-4-carboxylic acid]

- IC50 [1]: 2.1 nM
SMILES: CC(C)C[C@H](N[C@@H](C)C(=O)N1C(=O)N(Cc2ccccc2)C[C@H]1C(=O)O)C(=O)O [Example 12-(2), (4S)-1-benzyl-3-{(2S)-2-[N-((1S)-1-carboxy-isopentyl)amino]propionyl}-2-oxo-imidazolidine-4-carboxylic acid]

- IC50 [1]: 2.3 nM
SMILES: CC[C@H](N[C@@H](CCc1ccccc1)C(=O)O)C(=O)N1C(=O)N(Cc2ccccc2)C[C@H]1C(=O)O [Example 17-(2), (4S)-1-benzyl-3-{(2S)-2-[N-((1S)-1-carboxy-3-phenylpropyl)amino]-n-butyryl}-2-oxo-imidazolidine-4-carboxylic acid]

- IC50 [1]: 3.3 nM
SMILES: CC(C)CC[C@H](N[C@@H](C)C(=O)N1C(=O)N(Cc2ccccc2)C[C@H]1C(=O)O)C(=O)O [Example 13-(2), (4S)-1-benzyl-3-{(2S)-2-[N-((1S)-1-carboxy-4-methyl-n-pentyl)amino]propionyl}-2-oxo-imidazolidine-4-carboxylic acid]

- IC50 [1]: 1.4 nM
SMILES: CCCCCCCC[C@H](N[C@@H](CC)C(=O)N1C(=O)N(Cc2ccccc2)C[C@H]1C(=O)O)C(=O)O [Example 15-(3), (4S)-1-benzyl-3-{(2S)-2-[N-((1S)-1-carboxy-n-nonyl)amino]-n-butyryl}-2-oxo-imidazolidine-4-carboxylic acid]
